Measurements from US11369556B2, “Oral care composition comprising rottlerin” (Colgate-Palmolive Company, priority 2017, dated 2022).

What was measured:
[1] = system: S. oralis; assay: 10-hour bacterial growth, optical density readings, S. oralis; type: cell-based, Streptococcus oralis
Description: (§1) In particular, Tables 1-3 illustrate 10-hour bacterial growth in terms of optical density (OD) readings taken at one-hour intervals, where the density readings represent the amount of bacteria present.
(§2) The bacterial cultures were grown overnight and standardized to a 0.05 OD reading, after which, different concentrations of rottlerin were added, and the bacterial growth was monitored hourly for 10 hours using a plate reader.
Table 1 illustrates three examples of S. oralis bacterial growth: one showing the untreated growth of S. oralis, another showing the growth of S. oralis after treatment with 10 μM of rottlerin, and a final example showing the growth of S. oralis after treatment with 20 μM of rottlerin.

[2] = system: A. viscosus; assay: 10-hour bacterial growth, optical density readings, A. viscosus; type: cell-based, Actinomyces viscosus
Description: as §1, §2
Table 2 illustrates three examples of A. viscosus bacterial growth: an untreated A. viscosus growth, a growth of A. viscosus after treatment with 10 μM of rottlerin, and a growth of A. viscosus after treatment with 20 μM of rottlerin.

[3] = system: mixed species, equal amounts of S. oralis, S. mutans, and A. viscosus; assay: 10-hour bacterial growth, optical density readings, mixed species; type: cell-based
Description: as §1, §2
Finally, Table 3 illustrates three examples of mixed species bacterial growth, including equal amounts of S. oralis, S. mutans, and A. viscosus species: an untreated growth, a growth of the mixed species after treatment with 10 μM of rottlerin, and a growth of the mixed species after treatment with 20 μM of rottlerin.

[4] = system: S. oralis; assay: Metabolic activity of S. oralis, ATP assay; type: cell-based, Streptococcus oralis; details: for Reduction of Metabolic Activity: incubated 1 hour at 37° C.
Description: (§3) S. ovalis is a representative streptococcus species of bacteria that colonize the oral cavity and may serve as a representative species for the efficacy of antimicrobial agents. Table 4 (below) illustrates the effects of rottlerin on the metabolic activity and cell viability of S. ovalis when treated with various concentrations of rottlerin. The metabolic activity of the S. ovalis bacteria was measured through ATP assays, and the cell viability was measured using a resazurin assay.
Similarly, the metabolic activity was measured through an ATP assay as follows: A culture of S. oralis bacteria was grown and standardized to a 610˜0.6 OD. 500 μl of the S. ovalis bacteria culture was then transferred to a clean and sterile micro-centrifuge tube and treated as above. Three 100 μl samples from each tube were then individually plated in individual wells of a 96-well plate and 100 μl of Bactitre glow ATP reagent was added. The metabolic activity of the S. oralis bacteria was then monitored by measuring luminescence, with an increase in luminescence correlating with higher metabolic cells.

[5] = system: S. oralis; assay: Cell viability of S. oralis, resazurin assay; type: cell-based, Streptococcus oralis; details: for Cell Viability: incubated 1 hour at 37° C.
Description: as §3
In particular, the cell viability of S. oralis was measured through a resazurin assay as follows: A culture of S. oralis bacteria was grown and standardized to a 610˜0.6 OD. 500 μl of the S. oralis bacteria culture was then transferred to a clean and sterile micro-centrifuge tube. The tube was then centrifuged at greater than 15,000 g for 10 minutes to pellet the bacteria. The tube samples were then treated with different amounts of rottlerin and resuspended in 1 ml of 0.25× Trypticase soy broth (TSB) in water. Control and dead samples were created by resuspending the pellet bacteria in sterile media or 100% ethanol, and without adding rottlerin. The tubes were then inverted 3 times for mixing and incubated at 37° C. for 1 hour. Afterwards, 1 ml of D/E neutralizing broth was added to each tube and the samples in the tubes were then washed and stained. The tubes were then centrifuged at greater than 15,000 g for 10 minutes to pellet the bacteria again. The supernate was then removed and the bacteria was resuspended in 1 ml of sterile 0.25× TSB wash. Three 100 μl samples from each tube were then each individually plated in individual wells of a 96-well plate. The samples were then prepared for a standard analytic curve by combining fixed ratios of the live and dead control samples. 100 μl of the resazurin dye solution were then added to each well, and the 96-well plate was then incubated at 37° C. until the live control samples turned the appropriate pink color. A fluorescence plate reader was then used to read the fluorescence of the resazurin dye at 560 nm excitation/590 nm emission, and a percentage of live and dead cells was then calculated.

[6] = low concentrations of rottlerin

CC(=O)c1c(O)c(C)c(O)c(Cc2c(O)c3c(c(C(=O)/C=C/c4ccccc4)c2O)OC(C)(C)C=C3)c1O [rottlerin, 5,7-dihydro-2,2-dimethyl-6-(2,4,6-trihydroxy-3-methyl-5-acetylbenzyl)-8-cinnamoyl-1,2-chromene]
S. oralis growth (OD) ([1]; 10 μM, exposure time 1 hour): 0.10 OD | S. oralis growth (OD) ([1]; 10 μM, exposure time 2 hours): 0.095 OD | S. oralis growth (OD) ([1]; 10 μM, exposure time 3 hours): 0.091 OD | S. oralis growth (OD) ([1]; 10 μM, exposure time 4 hours): 0.088 OD | S. oralis growth (OD) ([1]; 10 μM, exposure time 5 hours): 0.089 OD | S. oralis growth (OD) ([1]; 10 μM, exposure time 6 hours): 0.091 OD | S. oralis growth (OD) ([1]; 10 μM, exposure time 7 hours): 0.088 OD | S. oralis growth (OD) ([1]; 10 μM, exposure time 8 hours): 0.075 OD | S. oralis growth (OD) ([1]; 10 μM, exposure time 9 hours): 0.075 OD | S. oralis growth (OD) ([1]; 10 μM, exposure time 10 hours): 0.074 OD | S. oralis growth (OD) ([1]; 20 μM, exposure time 1 hour): 0.098 OD | S. oralis growth (OD) ([1]; 20 μM, exposure time 2 hours): 0.099 OD | S. oralis growth (OD) ([1]; 20 μM, exposure time 3 hours): 0.089 OD | S. oralis growth (OD) ([1]; 20 μM, exposure time 4 hours): 0.088 OD | S. oralis growth (OD) ([1]; 20 μM, exposure time 5 hours): 0.091 OD | S. oralis growth (OD) ([1]; 20 μM, exposure time 6 hours): 0.090 OD | S. oralis growth (OD) ([1]; 20 μM, exposure time 7 hours): 0.090 OD | S. oralis growth (OD) ([1]; 20 μM, exposure time 8 hours): 0.081 OD | S. oralis growth (OD) ([1]; 20 μM, exposure time 9 hours): 0.080 OD | S. oralis growth (OD) ([1]; 20 μM, exposure time 10 hours): 0.079 OD | growth of bacteria compared to an untreated control ([1]; S. oralis, low concentrations of rottlerin (Table 1)): significantly reduced | A. viscosus growth (OD) ([2]; 10 μM, exposure time 1 hour): 0.105 OD | A. viscosus growth (OD) ([2]; 10 μM, exposure time 2 hours): 0.112 OD | A. viscosus growth (OD) ([2]; 10 μM, exposure time 3 hours): 0.104 OD | A. viscosus growth (OD) ([2]; 10 μM, exposure time 4 hours): 0.093 OD | A. viscosus growth (OD) ([2]; 10 μM, exposure time 5 hours): 0.091 OD | A. viscosus growth (OD) ([2]; 10 μM, exposure time 6 hours): 0.087 OD | A. viscosus growth (OD) ([2]; 10 μM, exposure time 7 hours): 0.084 OD | A. viscosus growth (OD) ([2]; 10 μM, exposure time 8 hours): 0.085 OD | A. viscosus growth (OD) ([2]; 10 μM, exposure time 9 hours): 0.082 OD | A. viscosus growth (OD) ([2]; 10 μM, exposure time 10 hours): 0.079 OD | A. viscosus growth (OD) ([2]; 20 μM, exposure time 1 hour): 0.105 OD | A. viscosus growth (OD) ([2]; 20 μM, exposure time 2 hours): 0.122 OD | A. viscosus growth (OD) ([2]; 20 μM, exposure time 3 hours): 0.121 OD | A. viscosus growth (OD) ([2]; 20 μM, exposure time 4 hours): 0.115 OD | A. viscosus growth (OD) ([2]; 20 μM, exposure time 5 hours): 0.113 OD | A. viscosus growth (OD) ([2]; 20 μM, exposure time 6 hours): 0.106 OD | A. viscosus growth (OD) ([2]; 20 μM, exposure time 7 hours): 0.1 OD | A. viscosus growth (OD) ([2]; 20 μM, exposure time 8 hours): 0.097 OD | A. viscosus growth (OD) ([2]; 20 μM, exposure time 9 hours): 0.091 OD | A. viscosus growth (OD) ([2]; 20 μM, exposure time 10 hours): 0.086 OD | growth of bacteria compared to an untreated control ([2]; A. viscosus, low concentrations of rottlerin (Table 2)): significantly reduced | Mixed species growth (OD) ([3]; 10 μM, exposure time 1 hour): 0.088 OD | Mixed species growth (OD) ([3]; 10 μM, exposure time 3 hours): 0.083 OD | Mixed species growth (OD) ([3]; 10 μM, exposure time 4 hours): 0.081 OD | Mixed species growth (OD) ([3]; 10 μM, exposure time 5 hours): 0.082 OD | Mixed species growth (OD) ([3]; 10 μM, exposure time 6 hours): 0.079 OD | Mixed species growth (OD) ([3]; 10 μM, exposure time 7 hours): 0.076 OD | Mixed species growth (OD) ([3]; 10 μM, exposure time 8 hours): 0.073 OD | Mixed species growth (OD) ([3]; 10 μM, exposure time 9 hours (head of second time column, c2)): 0.085 OD | Mixed species growth (OD) ([3]; 10 μM, exposure time 10 hours): 0.070 OD | Mixed species growth (OD) ([3]; 20 μM, exposure time 1 hour): 0.089 OD | Mixed species growth (OD) ([3]; 20 μM, exposure time 3 hours): 0.090 OD | Mixed species growth (OD) ([3]; 20 μM, exposure time 4 hours): 0.089 OD | Mixed species growth (OD) ([3]; 20 μM, exposure time 5 hours): 0.088 OD | Mixed species growth (OD) ([3]; 20 μM, exposure time 6 hours): 0.085 OD | Mixed species growth (OD) ([3]; 20 μM, exposure time 7 hours): 0.082 OD | Mixed species growth (OD) ([3]; 20 μM, exposure time 8 hours): 0.076 OD | Mixed species growth (OD) ([3]; 20 μM, exposure time 9 hours (head of second time column, c2)): 0.091 OD | Mixed species growth (OD) ([3]; 20 μM, exposure time 10 hours): 0.071 OD | growth of bacteria compared to an untreated control ([3]; mixed species, low concentrations of rottlerin (Table 3)): significantly reduced | Reduction of Metabolic Activity ([4]; Rottlerin Amt. 0.25 μg): 40% | Reduction of Metabolic Activity ([4]; Rottlerin Amt. 1.25 μg): 51% | Reduction of Metabolic Activity ([4]; Rottlerin Amt. 2.5 μg): 60% | Reduction of Metabolic Activity ([4]; Rottlerin Amt. 5 μg): 61% | Reduction of Metabolic Activity ([4]; Rottlerin Amt. 10 μg): 72% | Reduction of Metabolic Activity ([4]; Rottlerin Amt. 12.5 μg): 75% | metabolic activity of S. oralis [4, 6]: significantly negatively affected | Cell Viability ([5]; Rottlerin Amt. 0.25 μg): 79.5% | Cell Viability ([5]; Rottlerin Amt. 1.25 μg): 61% | Cell Viability ([5]; Rottlerin Amt. 2.5 μg): 49.4% | Cell Viability ([5]; Rottlerin Amt. 5 μg): 41.1% | Cell Viability ([5]; Rottlerin Amt. 10 μg): 25.9% | Cell Viability ([5]; Rottlerin Amt. 12.5 μg): 19.9% | cell viability of S. oralis [5, 6]: significantly negatively affected
